Results from paper PMC5890689 (RSC Advances, 2018).
Entries after “also recorded” stand apart in the source; their conditions may differ. Like-named read-outs stand apart in the source and are kept apart here.

What was measured:
[1] = test system: KB (nasopharyngeal carcinoma); experiment: SRB assay, KB; settings: for GI50: Homo sapiens, 72 h, read-out: GI50 KB
[2] = test system: A549 (lung cancer); experiment: SRB assay, A549; settings: Homo sapiens, A549, 72 h, read-out: GI50 A549
[3] = test system: MCF-7 (Michigan Cancer Foundation-7); experiment: SRB assay, MCF-7; settings: Homo sapiens, MCF7, 72 h, read-out: GI50 MCF-7
[4] = test system: MDA-MB-231 (human breast carcinoma cell line); experiment: SRB assay, MDA-MB-231; settings: MDA-MB-231, 72 h, read-out: GI50 MDA-MB-231
[5] = target: CDK2/cyclin A (Homo sapiens, UniProt P24941); experiment: CDK2/cyclin A kinase assay; assay type: biochemical
[6] = target: CDK9/cyclin T1 (Homo sapiens, UniProt P50750); experiment: CDK9/cyclin T1 kinase assay; assay type: biochemical
Chain of CDK9/cyclin T1 (P50750 whole entry): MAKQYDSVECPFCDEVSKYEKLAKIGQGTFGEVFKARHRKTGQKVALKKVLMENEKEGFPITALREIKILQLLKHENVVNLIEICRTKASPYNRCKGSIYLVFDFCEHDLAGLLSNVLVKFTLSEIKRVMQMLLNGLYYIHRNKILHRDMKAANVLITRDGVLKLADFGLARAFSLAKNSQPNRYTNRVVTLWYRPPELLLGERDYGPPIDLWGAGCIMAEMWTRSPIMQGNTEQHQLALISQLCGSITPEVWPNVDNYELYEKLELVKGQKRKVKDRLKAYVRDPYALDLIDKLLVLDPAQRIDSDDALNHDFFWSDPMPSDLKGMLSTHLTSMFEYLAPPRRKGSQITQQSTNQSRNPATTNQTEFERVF
Chain of CDK9/cyclin T1 (O60563 whole entry partner): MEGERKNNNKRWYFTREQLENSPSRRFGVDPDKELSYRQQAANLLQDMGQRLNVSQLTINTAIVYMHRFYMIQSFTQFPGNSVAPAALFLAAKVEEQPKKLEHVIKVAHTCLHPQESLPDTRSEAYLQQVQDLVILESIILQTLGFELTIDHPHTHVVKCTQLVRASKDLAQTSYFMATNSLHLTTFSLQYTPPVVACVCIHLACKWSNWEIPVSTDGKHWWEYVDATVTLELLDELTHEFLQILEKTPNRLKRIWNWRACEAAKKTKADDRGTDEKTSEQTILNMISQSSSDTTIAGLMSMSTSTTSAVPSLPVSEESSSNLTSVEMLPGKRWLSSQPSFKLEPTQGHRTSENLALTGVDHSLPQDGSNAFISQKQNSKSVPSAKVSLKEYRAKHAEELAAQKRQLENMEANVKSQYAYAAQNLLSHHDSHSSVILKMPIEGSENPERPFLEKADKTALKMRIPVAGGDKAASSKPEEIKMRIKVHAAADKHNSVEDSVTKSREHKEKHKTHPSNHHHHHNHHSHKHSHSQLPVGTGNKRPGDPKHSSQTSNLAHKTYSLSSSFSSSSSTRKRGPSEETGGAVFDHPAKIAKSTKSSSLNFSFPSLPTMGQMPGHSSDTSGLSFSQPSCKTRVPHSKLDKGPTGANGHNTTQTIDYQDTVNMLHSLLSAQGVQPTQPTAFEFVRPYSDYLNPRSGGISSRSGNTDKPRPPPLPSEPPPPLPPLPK

[7] = test system: A549 (lung cancer); settings: read-out: GI50 A549; SRB assay; cited from earlier work
[8] = test system: KB (nasopharyngeal carcinoma); settings: SRB assay; cited from earlier work
[9] = test system: KB-vin (vincristine-resistant KB subline); settings: SRB assay; cited from earlier work
[10] = test system: MDA-MB-231 cells; experiment: Cell cycle analysis by flow cytometry; assay type: cell-based, human; settings: 24 h, five-fold GI50 (2a 6.0 μM, 2d 8.0 μM, 3b 10.5 μM)
[11] = test system: KB-vin (vincristine-resistant KB subline); experiment: SRB assay, KB-vin; settings: 3 days, mean ± SD of three

| SMILES | GI50 [1] [µM] | GI50 [2] [µM] | GI50 [3] [µM] | GI50 [4] [µM] | IC50 [5] [µM] | IC50 [6] [µM] | GI50 KB ([1]; SRB assay, 3 days, mean ± SD of three) [µM] | GI50 KB-vin [11] [µM] | subtype selectivity for CDK9 over CDK2 ([6]; ratio of IC50 CDK2/cyclin A to CDK9/cyclin T1) [fold] | GI50 [7] [µM] | GI50 KB [8] [µM] | GI50 KB-vin [9] [µM] | Effect on cell cycle progression [10] |
| --- | --- | --- | --- | --- | --- | --- | --- | --- | --- | --- | --- | --- | --- |
| CN(C)CC(=O)Nc1cccc(Nc2ncc(F)c(NN3CCN(C)CC3)n2)c1 [2h, 2-(Dimethylamino)-N-(3-((5-fluoro-4-((4-methylpiperazin-1-yl)amino)pyrimidin-2-yl)amino)phenyl)acetamide] | > 10 | > 10 | > 10 | > 10 | 5.6 ± 0.53 | 2.2 ± 0.32 | – | – | – | – | – | – | – |
| CN1CC[C@H](c2c(O)cc(O)c3c(=O)cc(-c4ccccc4Cl)oc23)[C@H](O)C1 [FVP, Flavopiridol] | – | – | – | – | – | – | – | – | – | 0.14 ± 0.01 | 0.16 ± 0.01 | 0.18 ± 0.01 | – |
| CN(C)CC(=O)Nc1cccc(Nc2ncc(F)c(Nc3ccc(Cl)cc3)n2)c1 [2c, N-(3-((4-((4-Chlorophenyl)amino)-5-fluoropyrimidin-2-yl)amino)phenyl)-2-(dimethylamino)acetamide] | 2.03 ± 0.32 | 2.12 ± 0.26 | 3.94 ± 0.31 | 6.77 ± 0.38 | 0.91 ± 0.11 | 1.1 ± 0.02 | – | – | – | – | – | – | – |
| CC(=O)c1ccc(Nc2nc(Nc3cccc(NC(=O)CN(C)C)c3)ncc2F)cc1 [2b, N-(3-((4-((4-Acetylphenyl)amino)-5-fluoropyrimidin-2-yl)amino)phenyl)-2-(dimethylamino)acetamide] | 2.2 ± 0.37 | 2.33 ± 0.03 | 3.8 ± 0.24 | 5.8 ± 0.08 | 0.78 ± 0.04 | 0.39 ± 0.08 | – | – | – | – | – | – | – |
| CN(C)CC(=O)Nc1cccc(Nc2ncc([N+](=O)[O-])c(Nc3c(F)cccc3F)n2)c1 [2i, N-(3-((4-((2,6-Difluorophenyl)amino)-5-nitropyrimidin-2-yl)amino)phenyl)-2-(dimethylamino)acetamide] | 5.73 ± 0.35 | 4.9 ± 0.45 | 10.23 ± 0.03 | 5.94 ± 0.33 | 0.78 ± 0.12 | 0.48 ± 0.08 | – | – | – | – | – | – | – |
| COc1ccc(Nc2nc(Nc3cccc(NC(=O)CN(C)C)c3)ncc2F)cc1 [2a, 2-(Dimethylamino)-N-(3-((5-fluoro-4-((4-methoxyphenyl)amino)pyrimidin-2-yl)amino)phenyl)acetamide] | 0.57 ± 0.01 | 0.72 ± 0.01 | 0.67 ± 0.06 | 1.2 ± 0.06 | 0.32 ± 0.28 | 0.3 ± 0.01 | – | – | – | – | – | – | induced cell cycle arrest in G2/M phase; also recorded: induced cell cycle arrest at G2/M |
| CC(=O)O[C@H]1C(=O)[C@@]2(C)[C@H]([C@H](OC(=O)c3ccccc3)[C@]3(O)C[C@H](OC(=O)[C@H](O)[C@@H](NC(=O)c4ccccc4)c4ccccc4)C(C)=C1C3(C)C)[C@]1(OC(C)=O)CO[C@@H]1C[C@@H]2O [Paclitaxel, reference compound] | – | 0.00598 ± 0.0004 | 0.00878 ± 0.00079 | 0.00776 ± 0.00039 | – | – | 0.00494 ± 0.00021 | 1.51836 ± 0.14154 | – | – | – | – | – |
| CN(C)CC(=O)Nc1cccc(Nc2ncc(F)c(Nc3c(F)cccc3F)n2)c1 [2e, N-(3-((4-((2,6-Difluorophenyl)amino)-5-fluoropyrimidin-2-yl)amino)phenyl)-2-(dimethylamino)acetamide] | 4.78 ± 0.38 | 1.31 ± 0.07 | 4.49 ± 0.03 | 3.98 ± 0.16 | – | – | – | – | – | – | – | – | – |
| CN(C)CC(=O)Nc1cccc(Nc2ncc(F)c(Nc3cc(F)cc(F)c3)n2)c1 [2g, N-(3-((4-((3,5-Difluorophenyl)amino)-5-fluoropyrimidin-2-yl)amino)phenyl)-2-(dimethylamino)acetamide] | 0.56 ± 0.08 | 0.71 ± 0.06 | 0.67 ± 0.03 | 4.64 ± 0.06 | 0.57 ± 0.05 | 0.49 ± 0.27 | – | – | – | – | – | – | – |
| CN(C)CC(=O)Nc1cccc(Nc2ncc(F)c(Nc3c(Cl)cccc3Cl)n2)c1 [2f, N-(3-((4-((2,6-Dichlorophenyl)amino)-5-fluoropyrimidin-2-yl)amino)phenyl)-2-(dimethylamino)acetamide] | 7.04 ± 0.08 | 3.47 ± 0.44 | 6.02 ± 0.51 | 13 ± 0.38 | 1.6 ± 0.11 | 0.57 ± 0.12 | – | – | – | – | – | – | – |
| CN(C)CC(=O)Nc1cccc(Nc2ncc(F)c(Nc3ccc(N(C)C)cc3)n2)c1 [2d, 2-(Dimethylamino)-N-(3-((4-((4-(dimethylamino)phenyl)amino)-5-fluoropyrimidin-2-yl)amino)phenyl)acetamide] | 3.08 ± 0.16 | 1.89 ± 0.19 | 2.83 ± 0.03 | 1.64 ± 0.15 | 0.94 ± 0.43 | 0.32 ± 0.05 | – | – | – | – | – | – | induced cell cycle arrest in G2/M phase; also recorded: induced cell cycle arrest at G2/M |

Now from value to compound, other results behind:

| GI50 [1] [µM] | GI50 [2] [µM] | GI50 [3] [µM] | GI50 [4] [µM] | IC50 [5] [µM] | IC50 [6] [µM] | GI50 KB ([1]; SRB assay, 3 days, mean ± SD of three) [µM] | GI50 KB-vin [11] [µM] | subtype selectivity for CDK9 over CDK2 ([6]; ratio of IC50 CDK2/cyclin A to CDK9/cyclin T1) [fold] | SMILES | GI50 [7] [µM] | GI50 KB [8] [µM] | GI50 KB-vin [9] [µM] | Effect on cell cycle progression [10] |
| --- | --- | --- | --- | --- | --- | --- | --- | --- | --- | --- | --- | --- | --- |
| 0.6 ± 0.04 | 1.15 ± 0.08 | 2.37 ± 0.62 | 5.31 ± 0.19 | – | – | – | – | – | Cc1ccc(Nc2ncc(F)c(Nc3c(F)cccc3F)n2)cc1NC(=O)CN(C)C [3j, N-(5-((4-((2,6-Difluorophenyl)amino)-5-fluoropyrimidin-2-yl)amino)-2-methylphenyl)-2-(dimethylamino)acetamide] | – | – | – | – |
| 2.6 ± 0.45 | 1.09 ± 0.03 | 6.16 ± 0.14 | 3.3 ± 0.23 | 0.13 ± 0.02 | 0.66 ± 0.02 | – | – | – | CN1CCC(C(=O)Nc2cccc(Nc3ncc(F)c(Nc4c(F)cccc4F)n3)c2)CC1 [3d, N-(3-((4-((2,6-Difluorophenyl)amino)-5-fluoropyrimidin-2-yl)amino)phenyl)-1-methylpiperidine-4-carboxamide] | – | – | – | – |
| 3.8 ± 0.34 | 3.04 ± 0.18 | 4.48 ± 0.39 | 6.01 ± 0.08 | – | – | – | – | – | CN(C)CC(=O)Nc1ccc(Nc2ncc(F)c(Nc3c(F)cccc3F)n2)cc1 [3k, N-(4-((4-((2,6-Difluorophenyl)amino)-5-fluoropyrimidin-2-yl)amino)phenyl)-2-(dimethylamino)acetamide] | – | – | – | – |
| 4.44 ± 0.42 | 0.71 ± 0.01 | 7.16 ± 0.54 | 4.77 ± 0.27 | 0.95 ± 0.27 | 1.6 ± 0.1 | – | – | – | CN1CCCN(c2cccc(Nc3ncc(F)c(Nc4c(F)cccc4F)n3)c2)CC1 [3n, N ^4-(2,6-Difluorophenyl)-5-fluoro-N^2-(3-(4-methyl-1,4-diazepan-1-yl)phenyl) pyrimidine-2,4-diamine] | – | – | – | – |
| 2.31 ± 0.11 | 1.2 ± 0.05 | 2.65 ± 0.4 | 3.24 ± 0.05 | 0.3 ± 0.07 | 0.065 ± 0.023 | – | – | – | CN(C)CCC(=O)Nc1cccc(Nc2ncc(F)c(Nc3c(F)cccc3F)n2)c1 [3c, N-(3-((4-((2,6-Difluorophenyl)amino)-5-fluoropyrimidin-2-yl)amino)phenyl)-3-(dimethylamino)propanamide] | – | – | – | – |
| 3.27 ± 0.13 | 1.31 ± 0.18 | 2.73 ± 0.48 | 2.07 ± 0.12 | 0.38 ± 0.06 | 0.08 ± 0.001 | – | – | – | CC(C)(C)NCC(=O)Nc1cccc(Nc2ncc(F)c(Nc3c(F)cccc3F)n2)c1 [3b, 2-(tert-Butylamino)-N-(3-((4-((2,6-difluorophenyl)amino)-5-fluoropyrimidin-2-yl)amino)phenyl)acetamide] | – | – | – | induced cell cycle arrest in G2/M phase; also recorded: induced cell cycle arrest at G2/M |
| 0.59 ± 0.05 | 0.72 ± 0.04 | 5.97 ± 0.19 | > 10 | 1.1 ± 0.15 | 0.48 ± 0.22 | – | – | – | CC(C)CC(=O)Nc1cccc(Nc2ncc(F)c(Nc3c(F)cccc3F)n2)c1 [3a, N-(3-((4-((2,6-Difluorophenyl)amino)-5-fluoropyrimidin-2-yl)amino)phenyl)-3-methylbutanamide] | – | – | – | – |
| 3.82 ± 0.11 | 0.72 ± 0.01 | 6.73 ± 0.23 | 5.42 ± 0.35 | 0.75 ± 0.14 | 0.23 ± 0.01 | – | – | – | CN(C)CCNC(=O)c1cccc(Nc2ncc(F)c(Nc3c(F)cccc3F)n2)c1 [3e, 3-((4-((2,6-Difluorophenyl)amino)-5-fluoropyrimidin-2-yl)amino)-N-(2-(dimethylamino)ethyl)benzamide] | – | – | – | – |
| 2.87 ± 0.24 | 0.7 ± 0.002 | 1.88 ± 0.12 | 4.05 ± 0.14 | – | – | – | – | – | COc1ccc(Nc2ncc(F)c(Nc3c(F)cccc3F)n2)cc1NC(=O)CN(C)C [3i, N-(5-((4-((2,6-Difluorophenyl)amino)-5-fluoropyrimidin-2-yl)amino)-2-methoxyphenyl)-2-(dimethylamino)acetamide] | – | – | – | – |
| 0.98 ± 0.05 | 0.85 ± 0.01 | 3.75 ± 0.28 | 7 ± 0.06 | 5.6 ± 0.03 | 0.74 ± 0.04 | – | – | 7.5 | Cc1ccc(Nc2ncc(F)c(Nc3c(F)cccc3F)n2)cc1N1CCOCC1 [3o, N ^4-(2,6-difluorophenyl)-5-fluoro-N^2-(4-methyl-3-morpholinophenyl)pyrimidine-2,4-diamine] | – | – | – | – |
| 0.4 ± 0.09 | 1.25 ± 0.08 | 7.76 ± 0.52 | 2.84 ± 0.67 | 0.47 ± 0.04 | 0.29 ± 0.002 | – | – | – | CN1CCN(c2cccc(Nc3ncc(F)c(Nc4c(F)cccc4F)n3)c2)CC1 [3m, N ^4-(2,6-Difluorophenyl)-5-fluoro-N^2-(3-(4-methylpiperazin-1-yl)phenyl) pyrimidine-2,4-diamine] | – | – | – | – |
